Experimental findings from ChEMBL document CHEMBL4483862, “Open-source discovery of chemical leads for next-generation chemoprotective antimalarials” (2018) are described below.

The subject of this assay is Plasmodium berghei. Nature of the assay: Luciferase/luciferin-expressing antifolate-resistant parasites were used to infect a culture of HepG2 cells that were pre-incubated with compounds. Infected hepatocytes emit light due to the luciferase reaction. Assay results are presented as the percent inhibition of light emission compared to control. […]. The class given is functional. The settings on record: sporozoite; for IC90: read-out: LUCIFERASE INFECTION ASSAY - IC90.

The mark [1] stands for this setting: read-out: LUCIFERASE INFECTION ASSAY - IC50.

A word on the IC50: it is the concentration that gives 50% inhibition. A word on the IC90: it is the concentration needed for an effect of 90%. For `O=C(NCCSCc1ccc(Cl)cc1Cl)c1cccs1`, the IC90 came to 3.51 µM. For the same compound, the IC50 (HEPG2TOX_HILL_SLOPE 0.0561, HEPG2TOX_R_SQUARED 0.0467, PBLUC_HILL_SLOPE 2.24, PBLUC_R_SQUARED 0.817, read-out: LUCIFERASE INFECTION ASSAY - IC50) was 1.32 µM.

As for `O=C(NC1CC1)c1ccc(-c2cnc3c(NCc4ccc5c(c4)OCO5)nccn23)cc1`, the 90% effect concentration (IC90) is 2.99 µM. Where the note is “HEPG2TOX_HILL_SLOPE 2.15, HEPG2TOX_R_SQUARED 0.624, PBLUC_HILL_SLOPE 12.5, PBLUC_R_SQUARED 0.564, read-out: LUCIFERASE INFECTION ASSAY - IC50”, the concentration for half-maximal inhibition (IC50) worked out at 2.51 µM.

As for `COc1cc(NC(=O)COc2ccc3[nH]c4ccccc4c(=O)c3c2)c(OC)cc1Cl`, the IC90 was determined as 2.11 µM. Under setting [1], the IC50 is 0.246 µM.

On to `COc1cc(NC(=O)Nc2cc(Cl)cc(Cl)c2)cc(C(F)(F)F)c1`, for which the IC90 was 0.748 µM. The IC50 (HEPG2TOX_HILL_SLOPE 3.42, HEPG2TOX_R_SQUARED 0.986, PBLUC_HILL_SLOPE 0.84, PBLUC_R_SQUARED 0.7, read-out: LUCIFERASE INFECTION ASSAY - IC50) is 0.0547 µM.

Regarding `CC(C)n1ncc2c(C(=O)Nc3nnc(C(F)(F)F)s3)cc(-c3ccc4c(c3)OCCO4)nc21`, the IC90 was determined as 5.59 µM. Also, the 50% inhibitory concentration (IC50) (FFLUC_HILL_SLOPE 2.46, FFLUC_R_SQUARED 0.0818, HEPG2TOX_HILL_SLOPE 10.3, HEPG2TOX_R_SQUARED 0.775, PBLUC_HILL_SLOPE 73.3, PBLUC_R_SQUARED 0.159, read-out: LUCIFERASE INFECTION ASSAY - IC50) came out at 5.42 µM.

Consider `CCOc1ccc(-c2nc(NC(=O)c3ccc(OC)c(S(=O)(=O)N(C)OC)c3)sc2C)cc1`, for which the IC90 is greater than 10 µM. For the same compound, the IC50 under setting [1] is greater than 10 µM.

`CC(C)CCN(C(=O)CN1c2ccccc2CC1C)c1c(N)n(Cc2ccccc2)c(=O)[nH]c1=O` (configuration not stated): the IC90 is greater than 10 µM. Under setting [1], the IC50 was greater than 10 µM.

Regarding `CC(=O)NCCCc1ccc(C(=O)COC(=O)c2ccccc2-n2cnnn2)cc1`, the IC90 was 2.51 µM. Also, under “PBLUC_HILL_SLOPE 3.15, PBLUC_R_SQUARED 0.801, read-out: LUCIFERASE INFECTION ASSAY - IC50”, the 50% inhibitory concentration (IC50) was determined as 1.25 µM.

Regarding `CC(C)C(CNc1ncnc2cc(Cl)ccc12)N1CCN(C)CC1` (configuration not stated), the IC90 was greater than 10 µM. The IC50 (HEPG2TOX_HILL_SLOPE 6.21, HEPG2TOX_R_SQUARED 0.178, read-out: LUCIFERASE INFECTION ASSAY - IC50) was greater than 10 µM.

For the compound `O=C(COC(=O)c1cc2ccccc2cc1O)NC(c1ccccc1)c1ccccc1`, the IC90 is greater than 10 µM. The IC50 (FFLUC_HILL_SLOPE 2.56, FFLUC_R_SQUARED 0.57, PBLUC_HILL_SLOPE 2.71, PBLUC_R_SQUARED 0.551, read-out: LUCIFERASE INFECTION ASSAY - IC50) came out at 4.79 µM.

`O=S(=O)(Nc1ccc(C(F)(F)F)cc1)c1ccc(S(=O)(=O)c2ncc(C(F)(F)F)cc2Cl)s1`: the IC90 was greater than 5.99 µM. Besides, the IC50 (FFLUC_HILL_SLOPE 15.7, FFLUC_R_SQUARED 0.198, HEPG2TOX_HILL_SLOPE 0.681, HEPG2TOX_R_SQUARED 0.155, read-out: LUCIFERASE INFECTION ASSAY - IC50) is greater than 5.99 µM.

Take `C/C(=N\NC(=O)c1ccc(C(F)(F)F)cc1)c1ccccc1O`: the IC90 turned out to be 3.38 µM. The IC50 (HEPG2TOX_HILL_SLOPE 0.838, HEPG2TOX_R_SQUARED 0.996, PBLUC_HILL_SLOPE 3.61, PBLUC_R_SQUARED 0.312, read-out: LUCIFERASE INFECTION ASSAY - IC50) was determined as 1.84 µM.

`CC(Oc1ccc(Oc2ccc(C(F)(F)F)cc2)cc1)C(=O)N1CCN(c2ccc(C(F)(F)F)cn2)CC1` (configuration not stated): the IC90 is greater than 6.12 µM. Moreover, for the setting “HEPG2TOX_HILL_SLOPE 2.54, HEPG2TOX_R_SQUARED 0.907, PBLUC_HILL_SLOPE 2.4, PBLUC_R_SQUARED 0.3, read-out: LUCIFERASE INFECTION ASSAY - IC50”, the IC50 is 3 µM.

With `COc1cc(NC(=O)N2Cc3cnc(Nc4ccc(OCc5ccccc5)cc4)nc3C2)cc(OC)c1OC`, the 90% effect concentration (IC90) was greater than 6.25 µM. The IC50 under setting [1] was greater than 6.25 µM.

On to `CC(C)N(C(=O)CSc1nnnn1C)c1ccc(Nc2ccccc2)cc1`, for which the IC90 is greater than 10 µM. The IC50 (PBLUC_HILL_SLOPE 2.1, PBLUC_R_SQUARED 0.364, read-out: LUCIFERASE INFECTION ASSAY - IC50) was greater than 10 µM.

In the case of `COc1cccc(CC(=O)Nc2ccc(N3CCNC(=O)C3)c(Cl)c2)c1`, the IC90 was greater than 10 µM. Moreover, under setting [1], the IC50 was greater than 10 µM.

`CC1=C(c2nc(-c3ccc(C)cc3)no2)C(c2ccco2)NC(=S)N1` (configuration not stated): the IC90 is greater than 10 µM. For the setting “HEPG2TOX_HILL_SLOPE 4.63, HEPG2TOX_R_SQUARED 0.779, PBLUC_HILL_SLOPE 2.07, PBLUC_R_SQUARED 0.517, read-out: LUCIFERASE INFECTION ASSAY - IC50”, the IC50 was 7.61 µM.

`Nc1c(NCCO)cc(NC2CCCCC2)c2c1C(=O)c1ccccc1C2=O`: the IC90 is greater than 8.7 µM. Moreover, the half-maximal inhibitory concentration (IC50) (FFLUC_HILL_SLOPE 12.9, FFLUC_R_SQUARED 0.405, PBLUC_HILL_SLOPE 2.49, PBLUC_R_SQUARED 0.563, read-out: LUCIFERASE INFECTION ASSAY - IC50) is greater than 8.7 µM.

`NC(=O)c1ccc(-c2cc(-c3cc(F)c(F)c(F)c3)cnc2N)cc1`: the concentration for an effect of 90% (IC90) is greater than 9.61 µM. Besides, the IC50 under setting [1] was greater than 9.61 µM.

On to `Cc1c(-c2ccc(Cl)c(S(=O)(=O)N(C)c3ccccc3)c2)oc2ccc(F)cc2c1=O`, for which the IC90 stood at 4.45 µM. Further, under “PBLUC_HILL_SLOPE 9.42, PBLUC_R_SQUARED 0.55, read-out: LUCIFERASE INFECTION ASSAY - IC50”, the IC50 was determined as 3.52 µM.

In the case of `Cc1ccc(-c2noc(CN3CCN(c4cc(C)nc(N)n4)CC3)n2)cc1`, the IC90 was greater than 10 µM. In addition, the half-maximal inhibitory concentration (IC50) (HEPG2TOX_HILL_SLOPE 1.35, HEPG2TOX_R_SQUARED 0.853, PBLUC_HILL_SLOPE 1.09, PBLUC_R_SQUARED 0.613, read-out: LUCIFERASE INFECTION ASSAY - IC50) stood at 1.45 µM.

Turning to `C=C(C)c1cccc(C(C)(C)NC(=O)NNc2ccnc3cc(Cl)ccc23)c1`, the IC90 is 9.06 µM. Moreover, the IC50 (PBLUC_HILL_SLOPE 2.57, PBLUC_R_SQUARED 0.548, read-out: LUCIFERASE INFECTION ASSAY - IC50) is 3.86 µM.

Take `CC(C)CN(C(=O)c1ccc(N2CCCC2)c([N+](=O)[O-])c1)c1nc2ccccc2s1`: the IC90 amounted to 0.595 µM. Under “FFLUC_HILL_SLOPE 0.859, FFLUC_R_SQUARED 0.184, HEPG2TOX_HILL_SLOPE 0.259, HEPG2TOX_R_SQUARED 0.321, PBLUC_HILL_SLOPE 3.83, PBLUC_R_SQUARED 0.838, read-out: LUCIFERASE INFECTION ASSAY - IC50”, the IC50 was 0.336 µM.

With `CCOc1ccc(NC(=S)N/N=C/c2cc(Cl)cc([N+](=O)[O-])c2O)cc1`, the IC90 is greater than 10 µM. For the same compound, the IC50 (HEPG2TOX_HILL_SLOPE 8.71, HEPG2TOX_R_SQUARED 0.133, PBLUC_HILL_SLOPE 2.29, PBLUC_R_SQUARED 0.38, read-out: LUCIFERASE INFECTION ASSAY - IC50) was found to be 6.7 µM.

As for `CSc1ccc(/C=C2\SC(=O)N(CCNC(=O)c3nc4nccc(C)n4n3)C2=O)cc1`, the IC90 is greater than 10 µM. Moreover, the IC50 under setting [1] is greater than 10 µM.

On to `Cc1ccc(NC(=O)c2cnn(C(C)(C)C)c2C)cc1F`, for which the IC90 came out at 6.02 µM. Moreover, where the note is “FFLUC_HILL_SLOPE 1.31, FFLUC_R_SQUARED 0.708, PBLUC_HILL_SLOPE 0.501, PBLUC_R_SQUARED 0.734, read-out: LUCIFERASE INFECTION ASSAY - IC50”, the IC50 worked out at 0.0753 µM.

For the compound `COc1ccc(-c2nc3ccc(NC(=O)Nc4ccc(F)c(Cl)c4)cn3n2)cc1`, the IC90 is 8.19 µM. The IC50 (PBLUC_HILL_SLOPE 3.84, PBLUC_R_SQUARED 0.577, read-out: LUCIFERASE INFECTION ASSAY - IC50) came out at 4.62 µM.

Take `CCC1CCc2sc(C(=O)Nc3ccccc3O)cc2C1` (configuration not stated): the IC90 is greater than 10 µM. Moreover, the IC50 (PBLUC_HILL_SLOPE 24.2, PBLUC_R_SQUARED 0.273, read-out: LUCIFERASE INFECTION ASSAY - IC50) came to 9.71 µM.

For the compound `O=C(CCc1ccco1)Nc1ccc(-n2nccn2)cc1`, the IC90 is greater than 10 µM. Besides, the concentration for half-maximal inhibition (IC50) (HEPG2TOX_HILL_SLOPE 10.3, HEPG2TOX_R_SQUARED 0.943, PBLUC_HILL_SLOPE 1.03, PBLUC_R_SQUARED 0.655, read-out: LUCIFERASE INFECTION ASSAY - IC50) amounted to 4.85 µM.

`OCc1ccc(-c2cnc3cnc(-c4ccc(Cl)cc4)cn23)cc1`: the IC90 is greater than 9.83 µM. Moreover, the IC50 under setting [1] is greater than 9.83 µM.

For the compound `CC(C)(C)c1ccc(OCCNC(=O)c2cccnc2)cc1`, the IC90 is greater than 11.1 µM. For the same compound, the IC50 under setting [1] was greater than 11.1 µM.

`CCn1c(NC(=O)Cc2ccc(C)c(OC)c2)nc2ccccc21`: the IC90 came out at 8.25 µM. Also, the IC50 (PBLUC_HILL_SLOPE 4.04, PBLUC_R_SQUARED 0.646, read-out: LUCIFERASE INFECTION ASSAY - IC50) was found to be 4.79 µM.

As for `CN(CC(=O)Nc1ccc(Cl)c(Cl)c1)C(=O)C12CC3CC(CC(C3)C1)C2`, the concentration for an effect of 90% (IC90) was greater than 10 µM. Moreover, under setting [1], the half-inhibitory concentration (IC50) was greater than 10 µM.

For the compound `OCc1ccc(-c2cnc3cnc(-c4ccc(CNc5ccccc5)cc4)cn23)cc1`, the 90% effect concentration (IC90) was greater than 8.12 µM. Moreover, under setting [1], the IC50 was 6.07 µM.

In the case of `CC(C)(C)c1ccc(-c2cnc3cnc(-c4ccc(C(=O)NCCO)cc4)cn23)cc1`, the IC90 was greater than 7.96 µM. Also, the IC50 (PBLUC_HILL_SLOPE 23.2, PBLUC_R_SQUARED 0.508, read-out: LUCIFERASE INFECTION ASSAY - IC50) is 7.27 µM.

Regarding `Cc1nnnn1/C(=C\c1ccccc1)C(=O)OCCOc1ccccc1Cl`, the IC90 is greater than 10 µM. The IC50 under setting [1] was greater than 10 µM.
